Data reported in patent US11566029B2, “Pyrazolo[1,5-a]pyrimidine-5,7-diamine compounds as CDK inhibitors and their therapeutic use” (CANCER RESEARCH TECHNOLOGY LIMITED, priority 2014, dated 2023).
pIC50: −log10 of the molar value. Counter-ions that a name gives are not always drawn.

Key:
[1] = target: T1, CDK7/CycH/MAT1 (Homo sapiens, UniProt P50613); test: In vitro kinase assay (PKLight luciferase ATP readout), CDK7; type: biochemical; details: for pIC50: ATP at Km, read-out: In vitro Kinase Inhibition CDK7 IC50; for Selectivity CDK1/CDK7: ratio of CDK1 IC50 to CDK7 IC50; for Selectivity CDK2/CDK7: ratio of CDK2 IC50 to CDK7 IC50
T1 construct: purchased ProQinase GmbH
Experimental: (§1) Purified recombinant CDK1/cycA1, CDK2/cycA1, CDK4/cycD1, CDK5/p35NCK, CDK6/cycD1, CDK7/CycH/MAT1, and CDK9/CycT1 were purchased from ProQinase GmbH. Kinase assays were performed according to manufacturer's protocols. Rb-CTF (ProQinase GmbH) (cat number: 0040-0000-6) was used as the kinase substrate for CDK1, CDK2, CDK4, and CDK6 kinases. […] A luciferase assay (PKLight assay; Cambrex) was used to determine ATP remaining at the end of the kinase reaction, which provides a measure of kinase activity, according to the manufacturer's protocols.
(§2) Kinase assays were carried out by incubation of increasing amounts of test compound with purified recombinant CDK-Cyclin complex, followed by measurement of free ATP remaining in the reaction using the luciferase assay kit (PKLight, Cambrex) which therefore provided a measure of inhibition for the specific CDK.
(§3) 5 μL of 1× kinase buffer (Cell Signalling Technologies) was mixed with 200 ng CDK1, 200 ng CDK2, 50 ng CDK4, 100 ng CDK5, or 200 ng CDK6 with 5 μg Rb-CTF and 300 ng CDK7 or 200 ng CDK9 with 500 μM RNA Poll II CTD peptide. […] The mixture was incubated at 30° C. for 30 minutes. The reaction is stopped with 20 μL of Stop Solution (provided in the PKLight kit) for 10 minutes at room temperature. Then 40 μL of the luciferase mix was added to the reaction mixture which was incubated for a further 10 minutes at room temperature and measured using the Tecan Infinite 2000 plate reader. GraphPad Prism Software was used to generate standard curve and determine the IC50's for each CDK.

[2] = tested on: MCF7 cells; test: Cell growth inhibition assay (sulforhodamine B), MCF7; type: cell-based; details: Homo sapiens, 72 hours, SRB assay, read-out: Growth Inhibition, GI50 MCF7
Experimental: (§4) All cells were purchased from the American Type Culture Collection (ATCC) and MCF7 cells were routinely cultured in Dulbecco's Modified Eagle's Medium (DMEM) supplemented with 10% fetal calf serum (FCS) (First Link) and HCT116 cells were routinely cultured in Roswell Park Memorial Instititute Medium (RPMI) supplemented with 10% FCS. Cell growth was assessed using a known sulforhodamine B assay (see, e.g., Skehan et al., 1990).
(§5) MCF-7 cells purchased from ATCC (USA) were routinely passaged in DMEM, supplemented with 10% FCS and HCT116 cells purchased from ATCC (USA) were routinely passaged in RPMI supplemented with 10% FCS and kept in a 37° C. incubator with 5% CO2. The growth assay for both cell lines was performed in the appropriate media using the exact same protocol as described here. For the growth assay, 5000 cells were seeded into each well of 96-well plates in DMEM containing 10% FCS. Test compounds prepared in DMSO were added to the medium at concentrations ranging from 0.00038-100 μM. The cells were incubated for a further 72 hours, at which time they were fixed by the addition of 100 μL/well of ice-cold 40% trichloroacetic acid (TCA). The plates were left for 1 hour at 4° C., washed in water and 100 μL of 0.4% (w/v) sulforhodamine (SRB; Sigma-Aldrich, UK) prepared in 1% acetic acid was added. Plates were washed in 1% acetic acid to remove excess SRB reagent, air dried, and bound dye was solubilized by the addition of 100 μL of 10 mM tris base. The plates were read at 492 nm using a plate reader.

[3] = target: T2, CDK2/cycA1 (Homo sapiens, UniProt P24941); test: In vitro kinase assay (PKLight luciferase ATP readout), CDK2; type: biochemical; details: ATP at Km; read-out: In vitro Kinase Inhibition CDK2 IC50
T2 construct: purchased ProQinase GmbH
Experimental: as §1, §2, §3

[4] = tested on: HCT116 cells; test: Cell growth inhibition assay (sulforhodamine B), HCT116; type: cell-based; details: Homo sapiens, HCT-116; 72 hours, SRB assay; read-out: Growth Inhibition, GI50 HCT116
Experimental: as §4, §5

[5] = target: T3, CDK1/cycA1 (Homo sapiens, UniProt P06493); test: In vitro kinase assay (PKLight luciferase ATP readout), CDK1; type: biochemical; details: ATP at Km; read-out: In vitro Kinase Inhibition CDK1 IC50
T3 construct: purchased ProQinase GmbH
Experimental: as §1, §2, §3

T1 sequence (P50613 whole entry): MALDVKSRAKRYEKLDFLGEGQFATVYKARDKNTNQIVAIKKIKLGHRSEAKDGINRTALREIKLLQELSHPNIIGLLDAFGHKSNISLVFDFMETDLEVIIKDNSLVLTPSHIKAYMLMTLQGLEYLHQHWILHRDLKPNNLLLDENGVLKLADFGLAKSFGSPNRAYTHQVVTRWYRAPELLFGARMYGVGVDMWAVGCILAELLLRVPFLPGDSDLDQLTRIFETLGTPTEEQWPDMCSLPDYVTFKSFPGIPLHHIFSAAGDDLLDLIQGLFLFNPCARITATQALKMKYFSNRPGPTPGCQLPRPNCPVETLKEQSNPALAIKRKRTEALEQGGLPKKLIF
T1 sequence (P51946 whole entry partner): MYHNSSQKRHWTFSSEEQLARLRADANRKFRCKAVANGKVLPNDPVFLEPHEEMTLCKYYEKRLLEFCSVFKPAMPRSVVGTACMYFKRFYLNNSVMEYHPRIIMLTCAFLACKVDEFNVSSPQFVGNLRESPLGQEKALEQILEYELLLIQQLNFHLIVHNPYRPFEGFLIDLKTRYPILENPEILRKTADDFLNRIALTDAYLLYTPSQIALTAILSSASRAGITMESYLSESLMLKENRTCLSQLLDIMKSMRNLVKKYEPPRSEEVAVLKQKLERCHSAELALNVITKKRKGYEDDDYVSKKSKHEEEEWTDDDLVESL
T1 sequence (P51948 whole entry partner): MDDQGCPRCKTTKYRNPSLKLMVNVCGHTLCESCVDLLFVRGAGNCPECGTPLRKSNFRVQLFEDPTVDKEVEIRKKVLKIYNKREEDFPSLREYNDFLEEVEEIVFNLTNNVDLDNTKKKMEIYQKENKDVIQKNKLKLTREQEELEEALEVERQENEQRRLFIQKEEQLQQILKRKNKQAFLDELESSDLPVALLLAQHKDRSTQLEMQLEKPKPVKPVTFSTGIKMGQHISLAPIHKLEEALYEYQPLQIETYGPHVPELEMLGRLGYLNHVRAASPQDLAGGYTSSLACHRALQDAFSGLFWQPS

Row | SMILES | pIC50 [1] | Selectivity CDK1/CDK7 [1] [fold] | Selectivity CDK2/CDK7 [1] [fold] | GI50 [2] [nM] | pIC50 [3] | GI50 [4] [nM] | pIC50 [5]
1 | CC(C)c1cnn2c(NCc3ccncc3)cc(NC[C@@]3(CO)CCNC3)nc12 (racemic) [PPDA-020] | 7.36 | 10 | 0.5 | 600 | 7.66 | 1500 | 6.36
2 | CC(C)c1cnn2c(NCc3ccccc3)cc(NC[C@@H]3C[C@@H](O)CN3)nc12 [PPDA-030] | 7.23 | – | 17 | 20200 | 6.00 | > 100000 | –
3 | CC(C)c1cnn2c(NCc3ccc(C(F)(F)F)cc3)cc(N[C@H]3CNC[C@H]3O)nc12 [PPDA-017] | 5.72 | 0.7 | 0.4 | 12800 | 6.12 | 11400 | 5.87
4 | CO[C@@H]1CCNCC1Nc1cc(NCc2ccccc2)n2ncc(C(C)C)c2n1 (stereo partly drawn) [PPDA-023] | 7.22 | 20 | 7.5 | 3700 | 6.35 | 5600 | 5.92
5 | CC(C)c1cnn2c(NCC3CCCCC3)cc(NCC3(O)CCNCC3)nc12 [PPDA-013] | 7.10 | 4.1 | 4.3 | 1200 | 6.46 | 1100 | 6.48
6 | CC(C)c1cnn2c(NCc3ccccc3)cc(NC[C@]3(O)CCNC[C@H]3O)nc12 (racemic) [PPDA-002, (3R,4R)-4-((7-(Benzylamino)-3-iso-propyl-pyrazolo[1,5-a]pyrimidin-5-ylamino)methyl)piperidine-3,4-diol hydrochloride] | 7.74 | 77 | 113 | 1500 | 5.69 | 5100 | 5.86
7 | CC(C)c1cnn2c(NCc3ccccc3)cc(N[C@H]3CNCC3O)nc12 (stereo in doubt) [PPDA-015, (3S,4S)-4-(7-(Benzylamino)-3-iso-propyl-pyrazolo[1,5-a]pyrimidin-5-ylamino)-pyrrolidin-3-ol hydrochloride] | 7.57 | 146 | 48 | 4100 | 5.89 | 12700 | 5.40
8 | CC(C)c1cnn2c(NCc3ccccc3)cc(NC[C@H]3CCCC[C@@H]3O)nc12 [XX-02, reference compound] | 6.16 | – | – | 47000 | – | > 100000 | –
9 | COC[C@H]1C[C@@H](Nc2cc(NCc3ccccc3)n3ncc(C(C)C)c3n2)CN1 [PPDA-027] | 7.74 | 14 | 38 | 3400 | 6.17 | 8900 | 6.60
10 | CC(C)c1cnn2c(NCc3ccccc3Cl)cc(NCC3(O)CCNCC3)nc12 [PPDA-011] | 6.38 | 0.3 | 0.2 | 300 | 7.01 | 1600 | 6.84
11 | CC(C)c1cnn2c(NC3CCN(S(=O)(=O)c4ccc(F)cc4)CC3)cc(NC[C@H]3CCNC[C@@H]3O)nc12 [PPDA-006] | 7.40 | 10 | 4.5 | 8400 | 6.75 | 10000 | 6.39
12 | CC(C)c1cnn2c(NCc3ccccc3)cc(NCC3CCNCC3)nc12 [XX-01, reference compound] | 6.51 | – | – | 12200 | – | 18700 | –
13 | CC(C)c1cnn2c(NCc3ccncc3)cc(NC[C@H]3CCNC[C@@H]3O)nc12 [PPDA-003, (3R,4R)-4-((3-iso-Propyl-7-(pyridin-4-ylmethylamino)pyrazolo[1,5-a]pyrimidin-5-ylamino)methyl)piperidin-3-ol hydrochloride] | 7.33 | 41 | 2.5 | – | 6.94 | – | 5.72

Other lines, results leading:

Row | pIC50 [1] | Selectivity CDK1/CDK7 [1] [fold] | Selectivity CDK2/CDK7 [1] [fold] | GI50 [2] [nM] | pIC50 [3] | GI50 [4] [nM] | pIC50 [5] | SMILES
14 | 6.95 | 1.9 | 0.3 | 4220 | 7.42 | 7200 | 6.67 | CC(C)c1cnn2c(Nc3ccc(S(=O)(=O)N(C)C)cc3)cc(NC[C@H]3CCNC[C@@H]3O)nc12 [PPDA-005]
15 | 6.82 | 5.6 | 6.8 | 12200 | 5.99 | 46400 | 6.07 | CC(C)c1cnn2c(NCc3ccccc3)cc(N[C@H]3CNCC[C@@]3(O)CO)nc12 [PPDA-024]
16 | 7.11 | – | – | – | 6.97 | – | 6.55 | CC(C)c1cnn2c(NCc3ccccc3)cc(N[C@@H]3CNCC[C@]3(O)CO)nc12 [PPDA-025]
17 | 6.03 | 1.9 | 1.4 | 2700 | 5.89 | 2500 | 5.74 | CC(C)c1cnn2c(NCC3CCCCC3)cc(NC[C@H]3CCNC[C@@H]3O)nc12 [PPDA-004]
18 | 7.37 | 93 | 6.1 | 3300 | 6.58 | 7300 | 5.40 | CC(C)c1cnn2c(NCc3ccccc3)cc(N[C@H]3CN[C@@H](CO)C3)nc12 [PPDA-028]
19 | 7.54 | 2.8 | 0.3 | 300 | 8.05 | 400 | 7.10 | CC(C)c1cnn2c(NCC3CCCCC3)cc(NC[C@@]3(CO)CCNC3)nc12 (racemic) [PPDA-019]
20 | 6.00 | – | 2.8 | 17600 | 5.55 | > 100000 | – | CO[C@H]1CN[C@H](CNc2cc(NCc3ccccc3)n3ncc(C(C)C)c3n2)C1 [PPDA-029]
21 | 6.34 | 1.2 | 1.0 | 38900 | 6.34 | 86600 | 6.25 | CC(C)c1cnn2c(NC(=O)C3CCNCC3)cc(NC[C@H]3CCNC[C@@H]3O)nc12 [PPDA-009, N-(5-((((3R,4R)-3-Hydroxypiperidin-4-yl)methyl)amino)-3-iso-propylpyrazolo[1,5-a]pyrimidin-7-yl)piperidine-4-carboxamide hydrochloride]
22 | – | 3.7 | 1.4 | 10100 | – | 23700 | – | CC(C)c1cnn2c(NCc3ccccc3)cc(NC3CNCC[C@]3(O)CO)nc12 (stereo partly drawn) [PPDA-025]
23 | 6.33 | – | 0.8 | 5600 | 6.41 | 20400 | – | CC(C)c1cnn2c(NCc3ccccc3)cc(NC[C@H]3NCC[C@@H]3O)nc12 [PPDA-031]
24 | 6.52 | – | 4.9 | – | 5.82 | – | – | CC(C)c1cnn2c(NCc3ccccc3)cc(NC[C@H]3NC[C@H](O)[C@@H]3O)nc12 [PPDA-032]
